Source: US11352350B2, “IRAK degraders and uses thereof” (Kymera Therapeutics, Inc., priority 2018, dated 2022)
Where two headings read alike, the source gives them in different places.

Experiments:
[1] = tested on: U2932; test: U2932 viability, CTG; assay type: cell-based
[2] = target: T1, IRAK4 (Homo sapiens (Human), UniProt Q9NWZ3); test: IRAK4 MSD degradation in OCI-LY10; assay type: cell-based; details: MSD
Method in brief: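 Remaining IRAK4 quantified by electrochemiluminescent MSD sandwich assay with two anti-IRAK4 antibodies. Compounds were dosed as 8 concentrations in 1:3 steps from a 1 to 10 μM final top on OCI-LY10 cells, incubated 4 to 24 h at 37° C. under 5% CO2. DC50 fitted with a three-parameter logistic curve.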

[3] = tested on: SU-DHL2; test: SU-DHL2 viability, CTG; assay type: cell-based
[4] = tested on: OCI-LY10; test: CTG Cell Viability Assay - OCI-LY10; assay type: cell-based, human; details: OCI-LY10, 4 days, read-out: CTG Cell Viability Assay - OCI-LY10: Average external-IC50
Method in brief: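 Viability read by CellTiter-Glo luminescence after 4 days at 37° C under 5% CO2 with compound (top 10 μM final, 1:3 steps, 9 doses, DMSO 0.2%). Three-parameter logistic fit gave IC50.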

[5] = target: T1, IRAK4; test: IRAK4 degradation in OCI-LY10 (DC50); assay type: cell-based
[6] = tested on: SU-DHL6; test: SU-DHL6 viability, CTG; assay type: cell-based
[7] = tested on: OCI-LY10; test: OCI-LY10 viability, CTG; assay type: cell-based
[8] = tested on: OCI-LY19; test: OCI-LY19 viability, CTG; assay type: cell-based
[9] = target: AIOLOS (Homo sapiens (Human), UniProt Q96SW2+Q9UKT9); test: AIOLOS degradation in OCI-LY10 (DC50); assay type: cell-based
[10] = target: T1, IRAK4; test: IRAK4 WB degradation (DC50); assay type: cell-based
[11] = tested on: OCI-LY3; test: OCI-LY3 viability, CTG; assay type: cell-based; details: Homo sapiens, MYD88 MUT
[12] = target: IKAROS (Homo sapiens (Human), UniProt Q13422+Q96SW2); test: IKAROS degradation in OCI-LY10 (DC50); assay type: cell-based
[13] = target: T1, IRAK4; test: IRAK4 degradation in OCI-LY10 tumor xenograft; assay type: in vivo; details: PO, BID (FIG. 18)
[14] = tested on: IL-6; test: IL-6 secretion in hPBMC using R848 stimulation; assay type: cell-based, human; details: hPBMC, R848 as stim, t = 20 h
[15] = target: T1, IRAK4; test: hPBMC IRAK4 degradation flow assay; assay type: cell-based; details: hPBMC monocyte, 20 hr, flow assay; read-out: IRAK4 degradation in hPBMC monocyte at 20 hr: Average external Abs DC50
Method in brief: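 Thawed human PBMCs treated with 10-point, 5-fold compound dilutions (0.1% DMSO) at 37° C. for 20 hours or 4 hours. IRAK4 measured by flow MFI in CD14+ monocytes and CD14− lymphocytes, normalized to DMSO and 10 μM 20-hour control; DC50 and max degradation from 4-parameter logistic fit.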

[16] = tested on: OCI-LY10 tumor xenograft; test: OCI-LY10 tumor xenograft, tumor volume; assay type: in vivo; details: PO, BID, 150 mg/kg (FIG. 18)
[17] = target: T1, IRAK4; test: IRAK4 degradation in human whole blood lymphocyte - flow cytometry; assay type: cell-based; details: read-out: IRAK4 degradation in whole blood lymphocyte-Flow cytometry: Average external Abs IC50
Method in brief: (§1)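 Fresh heparinized human whole blood dosed (10-point, 5-fold, 0.1% DMSO) for 20 h or 4 h at 37 °C, then fixed, stained and IRAK4 MFI quantified by flow in CD14+ monocytes and CD14− lymphocytes. DC50 and Dmax via 4-parameter logistic fit normalized to DMSO and 10 μM control.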

[18] = target: T1, IRAK4; test: IRAK4 degradation in human whole blood monocyte - flow cytometry; assay type: cell-based; details: read-out: IRAK4 degradation in whole blood monocyte-Flow cytometry: Average external Abs IC50
Method in brief: as §1

[19] = tested on: TNFα; test: Human whole blood LPS TNFα assay; assay type: cell-based; details: 20 h pretreatment, LPS 5 h, read-out: IRAK4 human whole blood LPS TNFa inhibition: Average external-IC50
Experimental: Human Whole blood LPS TNFα assay. Whole blood was collected fresh and plated same day into 96 well plates at 180 μL per well. Compound plates were prepared in DMSO as 8-point dose curves in duplicate, starting dose 2 μM, 5-fold. Compounds are added 20 μL into blood for final 200 μL per well. Compound and cells were incubated at 37° C., 5% CO2 for 20 hours. After twenty hours of pretreatment with the compounds, LPS (01 1 1:B4) (Sigma #L2637) was added at 100 ng/ml final concentration and blood incubated an additional five hours at 37° C., 5% CO2. Following assay completion, whole blood plates were spun down at 2000 rpm for 15 minutes at 4° C. 50 μL of plasma was carefully removed and placed into a new 96 well Costar (#3879) plate and stored at −80° C. until further analysis. Meso scale Discovery (MSD) human V-plex assays were used to measure cytokine levels. On day of cytokine analysis, plasma samples were thawed, diluted with V-plex diluent #2, and directly to MSD plates. Assay was further completed per standard manufacturer's protocol. Cytokine data was normalized to LPS stimulated and unstimulated controls. Prism Graphpad was used to generate IC50 using 4 parameter logistic regression curve, free-fit.

[20] = tested on: TNFα; test: Human PBMC LPS TNFα assay; assay type: cell-based; details: hPBMC, LPS stimulation, read-out: IRAK4 hPBMC LPS TNF-α inhibition: Average external-IC50
Experimental: Human PBMC LPS TNFα assay. Frozen PBMCs were thawed into RPMI with 10% FBS/1% penicillin/streptomycin and same day plated into 96 well plates at 200,000 PBMC/[…] media per well. Compound plates were prepared in DMSO with D300 cassette as 8-point dose curves in duplicate, starting dose 2 μM, 5-fold. Compounds are added 200 nL into cells for final 200 μL per well. Compound and cells were incubated at 37° C., 5% CO2 for 20 hours. After twenty hours of pretreatment with the compounds, LPS (01 1 1:B4) (Sigma #L2637) was added at 100 ng/ml final concentration and PBMCs incubated an additional five hours at 37° C., 5% CO2. Following assay completion, PBMC plates were spun down at 2000 rpm for 10 minutes. 100 uL of supernatant was carefully removed and placed into a new 96 well Costar (#3879) plate and stored at −80° C. until further analysis. Meso scale Discovery (MSD) human V-plex assays were used to measure cytokine levels. On day of cytokine analysis, supernatant samples were thawed, diluted with V-plex diluent #2, and directly to MSD plates. Assay was further completed per standard manufacturer's protocol. Cytokine data was normalized to LPS stimulated and unstimulated controls. Prism Graphpad was used to generate IC50 using 4 parameter logistic regression curve, free-fit.

[21] = Homo sapiens, U2932, MYD88 WT Lines, read-out: U2932 Viability, CTG IC50
[22] = OCI-LY10, 4 hrs, read-out: IRAK4 MSD degradation in OCI-LY10 at 4 hrs: Average external-Abs DC50
[23] = OCI-LY10, 24 hrs, read-out: IRAK4 MSD degradation in OCI-LY10 at 24 hrs: Average external-Abs DC50
[24] = Homo sapiens, SU-DHL-2, MYD88 Mutant Lines, read-out: SU-DHL2 Viability, CTG IC50
[25] = read-out: IRAK4 Degradation in OCI-LY10, DC50
[26] = Homo sapiens, SU-DHL-6, MYD88 WT Lines, read-out: SU-DHL6 Viability, CTG IC50
[27] = Homo sapiens, OCI-Ly10, MYD88 Mutant Lines, read-out: OCI-LY10 Viability, CTG IC50
[28] = Homo sapiens, OCI-LY19, MYD88 WT Lines, read-out: OCI-LY19 Viability, CTG IC50

T1 sequence (Q9NWZ3 whole entry): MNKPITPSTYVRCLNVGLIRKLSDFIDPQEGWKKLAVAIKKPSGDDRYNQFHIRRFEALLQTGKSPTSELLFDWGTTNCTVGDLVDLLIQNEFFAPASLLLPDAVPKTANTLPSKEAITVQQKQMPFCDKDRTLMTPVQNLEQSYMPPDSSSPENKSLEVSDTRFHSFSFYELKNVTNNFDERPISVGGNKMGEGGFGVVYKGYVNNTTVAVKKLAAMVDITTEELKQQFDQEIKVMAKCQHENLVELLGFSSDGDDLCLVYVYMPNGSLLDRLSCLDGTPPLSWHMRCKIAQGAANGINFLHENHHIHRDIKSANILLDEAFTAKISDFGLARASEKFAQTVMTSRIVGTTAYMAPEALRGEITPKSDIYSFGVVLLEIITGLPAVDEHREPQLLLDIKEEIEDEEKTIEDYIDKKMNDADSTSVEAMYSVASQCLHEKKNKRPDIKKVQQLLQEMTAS
IKAROS, sequence (Q13422 whole entry): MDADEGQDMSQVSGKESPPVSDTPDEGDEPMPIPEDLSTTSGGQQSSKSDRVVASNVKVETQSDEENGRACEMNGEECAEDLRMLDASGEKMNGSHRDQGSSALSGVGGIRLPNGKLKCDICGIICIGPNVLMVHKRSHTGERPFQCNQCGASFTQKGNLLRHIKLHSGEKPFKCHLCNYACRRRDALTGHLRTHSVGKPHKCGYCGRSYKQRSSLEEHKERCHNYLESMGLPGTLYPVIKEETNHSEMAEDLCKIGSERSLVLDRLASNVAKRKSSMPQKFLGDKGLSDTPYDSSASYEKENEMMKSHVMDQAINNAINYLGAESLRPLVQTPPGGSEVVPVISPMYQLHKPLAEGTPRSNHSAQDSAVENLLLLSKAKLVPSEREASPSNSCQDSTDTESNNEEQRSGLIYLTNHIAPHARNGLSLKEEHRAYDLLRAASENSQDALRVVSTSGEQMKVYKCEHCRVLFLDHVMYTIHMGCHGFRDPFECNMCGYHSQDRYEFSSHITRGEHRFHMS
IKAROS, sequence (Q96SW2 whole entry): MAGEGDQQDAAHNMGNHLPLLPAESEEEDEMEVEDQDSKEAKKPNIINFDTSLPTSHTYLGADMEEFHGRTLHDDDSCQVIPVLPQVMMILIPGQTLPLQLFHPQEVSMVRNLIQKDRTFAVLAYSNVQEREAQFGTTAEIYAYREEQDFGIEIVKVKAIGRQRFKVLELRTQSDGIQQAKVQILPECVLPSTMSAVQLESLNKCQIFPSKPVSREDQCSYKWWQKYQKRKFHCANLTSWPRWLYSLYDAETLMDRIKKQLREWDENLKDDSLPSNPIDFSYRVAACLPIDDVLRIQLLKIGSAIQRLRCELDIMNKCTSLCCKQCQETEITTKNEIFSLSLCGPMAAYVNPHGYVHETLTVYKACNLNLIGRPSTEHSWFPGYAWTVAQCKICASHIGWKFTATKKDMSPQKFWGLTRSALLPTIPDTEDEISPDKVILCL
IKAROS, sequence (Q16531 whole entry partner): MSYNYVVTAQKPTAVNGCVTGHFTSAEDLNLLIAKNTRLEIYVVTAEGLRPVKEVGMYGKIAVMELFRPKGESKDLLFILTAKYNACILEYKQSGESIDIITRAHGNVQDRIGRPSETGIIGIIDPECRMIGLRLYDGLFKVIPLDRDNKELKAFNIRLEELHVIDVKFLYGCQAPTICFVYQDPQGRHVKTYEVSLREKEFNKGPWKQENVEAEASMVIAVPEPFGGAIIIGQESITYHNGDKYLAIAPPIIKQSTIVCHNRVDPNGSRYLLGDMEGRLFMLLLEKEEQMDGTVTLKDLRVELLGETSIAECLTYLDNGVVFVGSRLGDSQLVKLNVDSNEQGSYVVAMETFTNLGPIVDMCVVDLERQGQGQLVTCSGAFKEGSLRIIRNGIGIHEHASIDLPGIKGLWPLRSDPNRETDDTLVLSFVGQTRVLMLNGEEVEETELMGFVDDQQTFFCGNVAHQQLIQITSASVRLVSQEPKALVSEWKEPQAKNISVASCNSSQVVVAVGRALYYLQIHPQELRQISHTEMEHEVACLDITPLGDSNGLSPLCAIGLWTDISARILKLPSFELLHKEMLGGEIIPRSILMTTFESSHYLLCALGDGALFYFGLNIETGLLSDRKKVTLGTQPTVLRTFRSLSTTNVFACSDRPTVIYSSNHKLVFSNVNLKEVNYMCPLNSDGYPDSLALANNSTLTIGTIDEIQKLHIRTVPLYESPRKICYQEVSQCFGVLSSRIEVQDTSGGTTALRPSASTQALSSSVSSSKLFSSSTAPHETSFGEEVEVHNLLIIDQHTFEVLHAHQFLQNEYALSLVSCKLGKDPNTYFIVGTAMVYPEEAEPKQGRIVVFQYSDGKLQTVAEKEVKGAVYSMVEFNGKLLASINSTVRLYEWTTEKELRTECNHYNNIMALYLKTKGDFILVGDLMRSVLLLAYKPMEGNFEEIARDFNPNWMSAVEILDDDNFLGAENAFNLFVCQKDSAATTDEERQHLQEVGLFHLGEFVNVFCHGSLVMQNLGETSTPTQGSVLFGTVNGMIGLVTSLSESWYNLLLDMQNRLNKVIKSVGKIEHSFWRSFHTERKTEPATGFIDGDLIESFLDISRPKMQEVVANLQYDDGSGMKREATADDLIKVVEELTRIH
AIOLOS, sequence (Q9UKT9 whole entry): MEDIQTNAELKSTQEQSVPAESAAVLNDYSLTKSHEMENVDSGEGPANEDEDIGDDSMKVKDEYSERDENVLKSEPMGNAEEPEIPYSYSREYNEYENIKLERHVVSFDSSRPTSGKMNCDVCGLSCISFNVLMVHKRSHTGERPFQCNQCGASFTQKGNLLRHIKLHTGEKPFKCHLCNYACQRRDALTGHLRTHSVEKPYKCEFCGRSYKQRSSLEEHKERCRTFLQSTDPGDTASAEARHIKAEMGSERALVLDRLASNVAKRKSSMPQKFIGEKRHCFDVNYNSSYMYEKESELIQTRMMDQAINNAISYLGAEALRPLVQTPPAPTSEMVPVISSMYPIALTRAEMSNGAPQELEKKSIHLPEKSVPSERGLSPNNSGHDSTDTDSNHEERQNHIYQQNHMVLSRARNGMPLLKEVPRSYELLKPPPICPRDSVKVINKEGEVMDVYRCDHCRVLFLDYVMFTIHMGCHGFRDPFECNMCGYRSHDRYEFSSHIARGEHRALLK
AIOLOS, sequence (Q96SW2 whole entry): as the sequence (Q96SW2 whole entry) above
AIOLOS, sequence (Q16531 whole entry partner): as the sequence (Q16531 whole entry partner) above

Row | Structure (SMILES) | IC50 [1, 21] [nM] | DC50 [2, 22] [nM] | DC50 [2, 23] [nM] | IC50 [3, 24] [nM] | IC50 ([4]; Homo sapiens, OCI-Ly10, 96 h) [nM] | DC50 [5, 25] [nM] | IC50 [6, 26] [nM] | IC50 [7, 27] [nM] | IC50 [8, 28] [nM] | DC50 [10] [nM] | DC50 ([5]; read-out: IRAK4 OCI-LY10 DC50) [nM] | DC50 [15] [nM] | DC50 [17] [nM] | IC50 [18] [nM] | IC50 [19] [nM] | IC50 [20] [nM] | also measured
1 | CC[C@@H]1CC(=O)N[C@@H]1COc1ncc(C#C[C@H]2CC[C@H](CN3CCC(OCCCc4cccc5c4n(C)c(=O)n5C4CCC(=O)NC4=O)CC3)CC2)c2cc(C(N)=O)c(OC)cc12 (some centres unmarked) [I-229] | > 10000 | 10 to 100 | 10 to 100 | > 10000 | > 1000 | 26 | 4100 | 3500 | > 10000 |  |  |  |  |  |  |  | 
2 | CN(CCCOCCNc1cccc2c1C(=O)N(C1CCC(=O)NC1=O)C2=O)C[C@H]1CC[C@H](n2cc(NC(=O)c3coc(-c4ccnc(NCC5CC5)c4)n3)c(C(F)F)n2)CC1 (some centres unmarked) [I-168] |  | 10 to 100 | < 10 |  | < 50 |  |  |  |  | 78 | 20 |  |  |  |  |  | DC50 [9]: 5 nM; IC50 ([1]; Homo sapiens, U2932, MYD88 WT, read-out: U2932 CTG IC50): 410 nM; IC50 ([3]; Homo sapiens, SU-DHL-2, MYD88 MUT, read-out: SU-DHL2 CTG IC50): 64 nM; IC50 [11]: 290 nM; IC50 ([6]; Homo sapiens, SU-DHL-6, MYD88 WT, read-out: SU-DHL6 CTG IC50): 1900 nM; IC50 ([7]; Homo sapiens, OCI-Ly10, MYD88 MUT, read-out: OCI-LY10 CTG IC50): 31 nM; IC50 ([8]; Homo sapiens, OCI-LY19, MYD88 WT, read-out: OCI-LY19 CTG IC50): 430 nM; DC50 [12]: 5 nM
3 | Cn1c(=O)n([C@H]2CCC(=O)NC2=O)c2cccc(CCCOC3CCN(CC4CCC(n5cc(NC(=O)c6cnn7ccc(N8CCOCC8)nc67)c(C(F)F)n5)CC4)CC3)c21 (stereo partly drawn) [I-257, N-[3-(difluoromethyl)-1-[4-[[4-[3-[1-[(3S)-2,6-dioxo-3-piperidyl]-3-methyl-2-oxo-benzimidazol-4-yl]propoxy]-1-piperidyl]methyl]cyclohexyl]pyrazol-4-yl]-5-morpholino-pyrazolo[1,5-a]pyrimidine-3-carboxamide] |  | < 10 | < 10 |  |  | 5 |  |  |  | 3 | 5 | < 10 |  |  |  |  | IC50 ([1]; MYD88 WT Lines, read-out: U2932 Viability, CTG IC50): > 10000 nM; IC50 ([1]; MYD88 WT, read-out: U2932 CTG IC50): 10000 nM; IC50 ([3]; MYD88 MUT, read-out: SU-DHL2 CTG IC50): 6900 nM; IC50 ([3]; MYD88 Mutant Lines, read-out: SU-DHL2 Viability, CTG IC50): 6900 nM; IC50 [4]: > 1000 nM; IRAK4 degradation in OCI-LY10 tumor xenograft [13]: 90%; IC50 [14]: < 1 nM; IC50 ([6]; MYD88 WT Lines, read-out: SU-DHL6 Viability, CTG IC50): 5600 nM; IC50 ([6]; MYD88 WT, read-out: SU-DHL6 CTG IC50): 5600 nM; Regression of OCI-LY10 tumor xenograft [16]: without regression; Regression of OCI-LY10 tumor xenograft ([16]; listed as 1-257): without causing regression; IC50 ([7]; MYD88 MUT, read-out: OCI-LY10 CTG IC50): 1200 nM; IC50 ([7]; MYD88 Mutant Lines, read-out: OCI-LY10 Viability, CTG IC50): 1200 nM; IC50 ([8]; MYD88 WT Lines, read-out: OCI-LY19 Viability, CTG IC50): 4700 nM; IC50 ([8]; MYD88 WT, read-out: OCI-LY19 CTG IC50): 4700 nM
4 | CN(C[C@H]1CC[C@H](n2cc3cc(NC(=O)c4cccc(C(F)(F)F)n4)c(C(C)(C)O)cc3n2)CC1)C1CCN(Cc2cccc3c2n(C)c(=O)n3C2CCC(=O)NC2=O)CC1 (some centres unmarked) [I-191] | > 10000 | < 10 |  | > 10000 | > 1000 | 4 | 5600 | > 10000 | > 10000 |  |  | < 10 |  |  |  |  | IC50 ([14]; Homo sapiens, 20 h): 1 to 10 nM
5 | Cn1c(=O)n(C2CCC(=O)NC2=O)c2ccc(CN3CCN(CCO[C@H]4C[C@H](N(C)C(=O)[C@H]5CC[C@H](n6cc(NC(=O)c7coc(-c8ccnc(NCC9CC9)c8)n7)c(C(F)F)n6)CC5)C4)CC3)cc21 (some centres unmarked) [I-45] |  | < 10 |  |  | < 50 |  |  |  |  |  |  |  | 50 to 100 | < 50 | 500 to 1000 | < 50 | 
6 | Cn1c(=O)n(C2CCC(=O)NC2=O)c2cccc(CCCOC3CCN(C[C@H]4CC[C@H](n5cc(NC(=O)c6coc(-c7ccnc(NCC8CC8)c7)n6)c(C(F)F)n5)CC4)CC3)c21 (some centres unmarked) [I-48] |  | < 10 |  |  | < 50 |  |  |  |  |  |  |  | < 50 | < 50 | 100 to 500 | 100 to 500 | 
